Data: BindingDB's records for PubMed 11082457 (Centre De Recherches De Croissy, 2000)

How the values were obtained:
[1] = target: T1, Nischarin (Bos mutus, UniProt L8IEU8)
T1 sequence (L8IEU8 whole entry): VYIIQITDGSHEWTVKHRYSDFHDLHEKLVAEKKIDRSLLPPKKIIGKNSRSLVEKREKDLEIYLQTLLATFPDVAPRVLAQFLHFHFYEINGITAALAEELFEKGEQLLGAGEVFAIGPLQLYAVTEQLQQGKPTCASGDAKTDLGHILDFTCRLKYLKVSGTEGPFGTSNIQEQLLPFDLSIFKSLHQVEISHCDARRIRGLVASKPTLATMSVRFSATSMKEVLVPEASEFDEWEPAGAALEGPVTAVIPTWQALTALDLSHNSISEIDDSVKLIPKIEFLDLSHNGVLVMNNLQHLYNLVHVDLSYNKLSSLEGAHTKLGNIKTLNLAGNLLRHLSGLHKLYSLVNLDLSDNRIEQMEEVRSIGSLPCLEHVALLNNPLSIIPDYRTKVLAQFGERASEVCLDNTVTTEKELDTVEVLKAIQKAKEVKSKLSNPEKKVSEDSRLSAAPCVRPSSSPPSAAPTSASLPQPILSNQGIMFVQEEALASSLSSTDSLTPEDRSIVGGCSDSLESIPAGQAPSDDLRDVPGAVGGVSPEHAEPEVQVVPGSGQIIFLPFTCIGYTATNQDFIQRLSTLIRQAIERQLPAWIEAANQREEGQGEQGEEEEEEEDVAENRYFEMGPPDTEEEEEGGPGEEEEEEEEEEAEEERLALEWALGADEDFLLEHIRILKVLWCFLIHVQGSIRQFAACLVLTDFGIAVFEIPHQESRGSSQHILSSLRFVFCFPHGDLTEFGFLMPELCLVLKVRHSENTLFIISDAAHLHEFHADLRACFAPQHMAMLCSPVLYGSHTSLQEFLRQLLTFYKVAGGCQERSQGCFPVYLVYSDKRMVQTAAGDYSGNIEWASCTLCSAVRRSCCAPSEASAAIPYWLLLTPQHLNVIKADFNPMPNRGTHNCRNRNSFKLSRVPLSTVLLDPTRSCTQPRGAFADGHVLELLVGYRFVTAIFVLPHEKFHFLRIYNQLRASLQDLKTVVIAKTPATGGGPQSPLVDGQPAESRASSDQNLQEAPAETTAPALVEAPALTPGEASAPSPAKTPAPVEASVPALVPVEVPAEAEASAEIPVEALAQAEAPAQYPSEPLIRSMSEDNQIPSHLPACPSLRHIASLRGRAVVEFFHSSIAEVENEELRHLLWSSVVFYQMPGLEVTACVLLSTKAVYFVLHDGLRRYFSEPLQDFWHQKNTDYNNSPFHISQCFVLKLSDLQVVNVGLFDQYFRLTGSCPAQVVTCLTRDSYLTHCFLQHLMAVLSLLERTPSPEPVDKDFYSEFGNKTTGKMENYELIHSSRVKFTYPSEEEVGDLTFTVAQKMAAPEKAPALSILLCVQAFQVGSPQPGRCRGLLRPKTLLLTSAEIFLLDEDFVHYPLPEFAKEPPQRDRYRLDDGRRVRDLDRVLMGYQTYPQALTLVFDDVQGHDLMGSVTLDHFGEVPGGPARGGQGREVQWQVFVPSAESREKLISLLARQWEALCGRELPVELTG

[2] = target: T2, Alpha-1B adrenergic receptor (Homo sapiens, UniProt P35368)
T2 sequence (P35368 whole entry): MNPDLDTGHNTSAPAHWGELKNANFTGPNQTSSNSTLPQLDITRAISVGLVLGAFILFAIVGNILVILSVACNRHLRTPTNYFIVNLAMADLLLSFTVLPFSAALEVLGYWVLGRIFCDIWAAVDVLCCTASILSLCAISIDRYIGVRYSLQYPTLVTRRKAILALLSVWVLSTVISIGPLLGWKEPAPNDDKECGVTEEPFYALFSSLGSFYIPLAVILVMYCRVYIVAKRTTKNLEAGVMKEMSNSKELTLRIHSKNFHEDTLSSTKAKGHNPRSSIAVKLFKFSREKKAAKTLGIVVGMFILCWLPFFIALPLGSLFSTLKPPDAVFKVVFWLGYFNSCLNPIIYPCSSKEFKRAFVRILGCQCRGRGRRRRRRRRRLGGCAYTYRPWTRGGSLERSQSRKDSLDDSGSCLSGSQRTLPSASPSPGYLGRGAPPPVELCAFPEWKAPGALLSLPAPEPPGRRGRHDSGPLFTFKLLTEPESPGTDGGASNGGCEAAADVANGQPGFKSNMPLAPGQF

[3] = target: Sodium-dependent noradrenaline transporter (Homo sapiens, UniProt P23975)
[4] = target: T3, Alpha-1A adrenergic receptor (Homo sapiens, UniProt P35348)
T3 sequence (P35348 whole entry): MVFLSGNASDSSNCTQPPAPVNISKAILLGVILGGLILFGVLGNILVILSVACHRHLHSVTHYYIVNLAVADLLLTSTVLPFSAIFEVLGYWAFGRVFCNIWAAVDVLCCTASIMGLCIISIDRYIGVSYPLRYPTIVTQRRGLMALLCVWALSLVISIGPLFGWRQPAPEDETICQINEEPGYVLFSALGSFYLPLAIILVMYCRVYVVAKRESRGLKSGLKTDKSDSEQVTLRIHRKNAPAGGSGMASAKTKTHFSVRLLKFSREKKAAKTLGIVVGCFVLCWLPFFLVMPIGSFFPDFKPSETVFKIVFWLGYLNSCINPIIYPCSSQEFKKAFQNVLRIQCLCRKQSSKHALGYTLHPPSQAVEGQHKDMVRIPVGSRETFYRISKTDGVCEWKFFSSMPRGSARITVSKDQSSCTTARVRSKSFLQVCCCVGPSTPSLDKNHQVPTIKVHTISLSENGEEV

Sodium-dependent noradrenaline transporter, sequence (P23975 whole entry): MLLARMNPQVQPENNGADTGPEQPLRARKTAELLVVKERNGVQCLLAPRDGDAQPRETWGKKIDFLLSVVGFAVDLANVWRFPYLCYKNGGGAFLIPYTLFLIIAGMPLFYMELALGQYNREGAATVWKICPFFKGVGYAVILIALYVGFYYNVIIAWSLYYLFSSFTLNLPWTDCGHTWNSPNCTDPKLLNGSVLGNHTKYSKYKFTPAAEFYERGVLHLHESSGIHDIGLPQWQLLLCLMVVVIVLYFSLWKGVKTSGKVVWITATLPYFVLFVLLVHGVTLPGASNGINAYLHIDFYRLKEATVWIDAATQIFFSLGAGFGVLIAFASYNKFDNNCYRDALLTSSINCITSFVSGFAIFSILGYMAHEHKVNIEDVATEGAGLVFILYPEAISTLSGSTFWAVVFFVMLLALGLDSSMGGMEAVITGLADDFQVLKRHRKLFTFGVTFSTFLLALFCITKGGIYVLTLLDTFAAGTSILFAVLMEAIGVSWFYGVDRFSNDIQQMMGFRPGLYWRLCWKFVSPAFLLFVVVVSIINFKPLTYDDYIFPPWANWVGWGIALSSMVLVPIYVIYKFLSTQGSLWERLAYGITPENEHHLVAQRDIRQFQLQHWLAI

| SMILES | Ki [1] [µM] | Ki [2] [µM] | Ki [3] [µM] | Ki [4] [µM] |
| --- | --- | --- | --- | --- |
| Cc1cccc([C@@H](C)c2cnc[nH]2)c1C | 0.2 | 0.316 | 1 | 0.2 |
| NC1=NC2(CCc3ccccc3C2)CO1 (stereo not drawn) [S18616] | 0.0398 | 0.02 | 1 | 0.00398 |
